≈ marks a conversion by molar mass, not a printed value. Where two headings read alike, the source gives them in different places.
Assays:
[1] = in vivo; cited from earlier work
[2] = tested on: Trichophyton rubrum (ATCC 28188); experiment: Time-Kill test (Example 9); format: cell-based
Description: A panel of “challenge microorganisms,” including select bacteria, yeast, and fungi was used to assess the disinfecting properties of test compounds, e.g., AMC (DPT Laboratories). […] The procedure was based on the ASTM procedure entitled, “Standard Test Method for the Assessment of Microbial Activity of Test Materials Using Time-Kill Procedure.”
A single lot of test material was prepared at various concentrations, along with multiple compounds prepared in various concentrations and combinations. These test materials were tested in duplicate against various bacteria, yeast and fungi. To minimize potential buffer interference and to minimize reduction of antimicrobial activity, the volume of the inoculum added to the test material was maintained at, or below, 1% of the total volume of the test. Samples were removed at various contact times. Serial dilutions were performed, and duplicate aliquots were plated. The plates were then incubated, and the average colony forming units (CFU) recovered per milliliter were determined for each contact time. The contact times for the test compounds with S. aureus, E. coli, P. aeruginosa, and C. albicans were 30 sec, 1 min, and 5 min. The contact times for the test compounds with B. subtilis were 1 and 10 min, 1 h, 2 h, 3 h, and 24 h. The contact times for the test compounds with T. rubrum were 30 sec, 1 min and 10 min. The contact temperature was ambient room temperature (20-21° C.).
The fungus, T. rubrum, was inoculated onto Emmon's agar (EA) and incubated at 25-30° C. for 10-15 days. The mycelial mats from mature cultures were removed from the surface of at least 5 plates and macerated with sterile saline (SS) in a sterile glass tissue grinder. The suspension was filtered through sterile glass wool to remove the hyphae.
The density of the conidial suspension was determined by serially diluting the prepared culture in BPDW. Aliquots from selected dilutions were plated on duplicate EA plates. The plates were incubated for 3-5 days at 25-30° C. and then each plate was examined for enumeration.
The suspension was stored at 2-10° C. for 4 weeks before use. On the day of testing, the suspension was adjusted to yield approximately 5.0×10^8 CFU by dilution with BPDW.
Compliant with the ASTM procedure cited above, the challenge microorganism was added to the test material by dispensing 99 ml of the test material into two sterile flasks, each containing a stir bar. The reaction flasks were allowed to equilibrate to the test temperature for at least 10 minutes. The flasks were placed in water baths on stir plates and maintained at the test temperature with stirring. A 1 ml aliquot of the prepared inoculum of the challenge microorganism was added to each flask to begin the contact period. At each contact time, 1 ml aliquot samples were removed and added to tubes containing 9 ml PBDW+. Serial 10-fold dilutions of each sample were then prepared in PBDW dilution blanks. Duplicate aliquots from selected dilutions were plated using the appropriate agar.
Upon completion of all contact periods, all plates were inverted and incubated for the appropriate time and temperature as follows: bacteria and yeast were incubated over 2 nights at 37° C.±2° C., and the fungus was incubated for at least 5 nights at 25-30° C. Following incubation, all plates were removed, the colonies were counted and the CFU recovered per ml at each contact time were calculated.

[3] = tested on: S. epidermidis ATCC 12228; experiment: NCCLS broth microdilution MIC and MBC (Example 10); format: cell-based, Staphylococcus epidermidis
Description: (§2) Strains of E. coli (ATCC 11229), D. aeruginosa (ATCC 15442), S. aureus (ATCC 25923), S. epidermidis (ATCC 12228), S. pyogenes (ATCC 19615), C. albicans (ATCC 10231), and T. rubrum (ATCC 28188) were used as “challenge microorganisms” in this study. Strains were removed from frozen stock and subcultured twice on blood agar to ensure that the strains had optimal growth and metabolic status before testing.
(§3) Hibiclens (industry comparator) and ciprofloxacin were added to the bacterial panel. Amphotericin B, fluconazole, and Hibiclens were added as comparative agents in the fungal panels.
(§4) For testing purposes, AMC, AMC components, and Hibiclens were diluted to 50% of the working solution to cover the proposed AMC use dilution of 20%.
(§5) Microtiter panels were created on the day of MIC testing. A 50 μl aliquot of Mueller-Hinton broth (for bacterial strains) or RPMI 1640 (for fungal strains) was delivered to each well, except those in column one of the microtiter panel. The working solution of AMC and each of its components, and comparative agents were delivered to the designated wells in column one. AMC, components, and comparators were serially diluted across the panel. A 50 μl aliquot of bacterial or fungal suspension was then added to each well on the microtiter panel, using a new pipette tip for each aliquot. Panels were incubated at 35° C. for 16-20 h for the E. coli, P. aeruginosa, and S. aureus strains, 20-24 h for the S. pyogenes strain, and 48 h for the C. albicans strain.
(§6) The 10 μl samples were plated on to blood agar and incubated at 35° C. for 24 h (E. coli and P. aeruginosa) or 48 h (S. aureus, S. epidermidis, and S. pyogenes). After incubation, colony counts for each panel well plated were recorded.
(§7) The MIC % is expressed as g/100 ml or ml/100 ml. […] The MBC % is expressed as g/100 ml or ml/100 ml.

S. aureus ATCC 25923 = experiment: NCCLS broth microdilution MIC and MBC (Example 10); format: cell-based, Staphylococcus aureus; details: Example 10
Description: as §2, §3, §4, §5, §6, §7

S. pyogenes ATCC 19615 = experiment: NCCLS broth microdilution MIC and MBC (Example 10); format: cell-based, Streptococcus pyogenes; details: Example 10; % as g/100 ml or ml/100 ml
Description: as §2, §3, §4, §5, §6, §7

E. coli ATCC 11229 = experiment: NCCLS broth microdilution MIC and MBC (Example 10); format: cell-based, Escherichia coli; details: % as g/100 ml or ml/100 ml
Description: as §2, §3, §4, §5, §6, §7

P. aeruginosa ATCC 15442 = experiment: NCCLS broth microdilution MIC and MBC (Example 10); format: cell-based, Pseudomonas aeruginosa; details: Example 10; % as g/100 ml or ml/100 ml
Description: as §2, §3, §4, §5, §6, §7

C. albicans ATCC 10231 [4] = experiment: NCCLS broth microdilution MIC and MFC (Example 10); format: cell-based, Candida albicans
Description: as §2
(§8) Amphotericin B, fluconazole, and Hibiclens were added as comparative agents in the fungal panels.
as §4
(§9) Microtiter panels were created on the day of MIC testing. A 50 μl aliquot of Mueller-Hinton broth (for bacterial strains) or RPMI 1640 (for fungal strains) was delivered to each well, except those in column one of the microtiter panel. The working solution of AMC and each of its components, and comparative agents were delivered to the designated wells in column one. AMC, components, and comparators were serially diluted across the panel. A 50 μl aliquot of bacterial or fungal suspension was then added to each well on the microtiter panel, using a new pipette tip for each aliquot. Panels were incubated at 35° C. for 16-20 h for the E. coli, P. aeruginosa, and S. aureus strains, 20-24 h for the S. pyogenes strain, and 48 h for the C. albicans strain. T. rubrum panels were incubated for 3 to 4 days before MICs were read. […] Fungal MICs (%) were read using an 80% reduction in the growth endpoint relative to the turbidity of the growth control for AMC, its components, and fluconazole. For amphotericin B, the endpoint was read as the complete inhibition of growth.
(§10) MFCs were determined in a similar manner.
(§11) The endpoint for amphotericin B was read as complete inhibition of growth. The MIC % is expressed as g/100 ml or ml/100 ml. […] The MFC % is expressed as g/100 ml or ml/100 ml.

T. rubrum ATCC 28188 [5] = experiment: NCCLS broth microdilution MIC and MFC (Example 10); format: cell-based, Trichophyton rubrum; details: Example 10
Description: as §2, §8, §4, §9, §10, §11

C. albicans ATCC 10231 [6] = experiment: NCCLS broth microdilution MIC and MFC (Example 11); format: cell-based, Candida albicans
Description: (§12) Strains of C. albicans (ATCC 10231) and T. rubrum (ATCC 28188) were tested in this study. Strains were removed from frozen stock and subcultured twice on blood agar to ensure that the strains had optimal growth and metabolic status before testing. Strains were tested by NCCLS broth microdilution (M27-A2, 2002) and challenged with AMC solution and its individual components […] ), and isopropanol. Amphotericin B, fluconazole, terbinafine, and Hibiclens were added as comparator compounds. […] Microtiter panels were created on the day of MIC testing. A 50 μl aliquot of RPMI 1640 was delivered to each well except those in column one of the microtiter panel. The working solution of AMC and each of its components, and comparative agents were delivered to the designated wells in column one; AMC, components, and comparators were serially diluted across the panel. A 50 μl aliquot of fungal suspension was then added to each well on the microtiter panel, using a new pipette tip for each aliquot. […] For amphotericin B, the endpoint was read as the complete inhibition of growth. […] MFCs were performed to determine the concentration at which ≧99% of the starting fungal inoculum was killed. […] After incubation, colony counts for each panel well plated were recorded. […] The endpoint for amphotericin B was read as complete inhibition of growth.

T. rubrum ATCC 28188 [7] = experiment: NCCLS broth microdilution MIC and MFC (Example 11); format: cell-based, Trichophyton rubrum; details: Example 11
Description: as §12

[8] = component at 100%; cited from earlier work
Hepatitis B virus = details: virus in dried human plasma exposed 10 min at 20 deg C. to 70% isopropanol; 9 months observation; cited from earlier work
[9] = component at 100%; cited from earlier work; remark: listed apart in the source
[10] = component at 100%; cited from earlier work; remark: listed apart in the source
[11] = Acute dermal toxicity, rabbit
[12] = Acute inhalation toxicity, rat
[13] = component at 100%; cited from earlier work; remark: listed apart in the source
E. coli (strain 1257) = experiment: Time-kill test, initial studies (death time); format: cell-based, Escherichia coli
Description: (§1) Time-kill tests were used to measure the disinfecting property of test compounds, e.g., microbiocidal or sporicidal compositions, using select bacterial challenge microorganisms such as the vegetative forms of, e.g., E. coli (strain 1257) S. aureus (strain 906), and Bacillus cereus (strain 96).

S. aureus (strain 906) = experiment: Time-kill test, initial studies (death time); format: cell-based, Staphylococcus aureus
Description: as §1

[14] = tested on: Bacillus cereus (strain 96); experiment: Time-kill test, initial studies (death time, sporicidal activity); format: cell-based; details: Conc. 5.0 %
[15] = MBC within one doubling dilution of the MIC
[16] = 80% reduction in growth endpoint
[17] = MFC within 1 doubling dilution of the MIC
[18] = Estimated for AMC contained concentrations

C=C1/C(=C/C=C2\CCC[C@]3(C)[C@@H]([C@@H](C)CCC(=O)N4CCCCC4)CC[C@@H]23)C[C@@H](O)C[C@@H]1O [Ecalcidene]
dose with immunological effects, times lower than doses causing toxicity associated with hypercalcemia [1]: 10-100 times

CC(C)O [Isopropanol]
Relative Kill Potency [2]: 0.64
reduction of T. rubrum count ([2]; Study 509-101, in 30 sec): not effective
30-Second Log Reduction from Initial T. rubrum CFU Values ([2]; Table 25, first value column): 0.8 Logs
MCB, % ([3]; % as g/100 ml or ml/100 ml): 24.5%
MIC, % ([3]; % as g/100 ml or ml/100 ml): 12.3%
bactericidal activity [3, 15]: bactericidal activity
MBC, % (S. aureus ATCC 25923; % as g/100 ml or ml/100 ml): 24.6%
MIC, % (S. aureus ATCC 25923; % as g/100 ml or ml/100 ml): 12.3%
bactericidal activity (S. aureus ATCC 25923; [15]): bactericidal activity
MBC, % (S. pyogenes ATCC 19615): 12.3%
MIC, % (S. pyogenes ATCC 19615): 12.3%
MIC, % (E. coli ATCC 11229): 6.1%
MBC, % (P. aeruginosa ATCC 15442): 12.3%
MIC, % (P. aeruginosa ATCC 15442): 3.1%
MIC, % (C. albicans ATCC 10231 [4]; [16]): 1.5%
MFC, % (C. albicans ATCC 10231 [4]; 99.9% inhibition of growth): 1.5%
fungicidal activity (C. albicans ATCC 10231 [4]; [17]): Fungal activity
MIC, % (T. rubrum ATCC 28188 [5]; [16]): 0.2%
MFC, % (T. rubrum ATCC 28188 [5]; 99.9% inhibition of growth): 0.4%
fungicidal activity (T. rubrum ATCC 28188 [5]; [17]): Fungicidal activity was observed
MFC, % (C. albicans ATCC 10231 [6]): 1.5%
MIC, % (C. albicans ATCC 10231 [6]; [16]): 0.8%
fungicidal activity (C. albicans ATCC 10231 [6]; [17]): Fungicidal activity
MFC, % (T. rubrum ATCC 28188 [7]): 3.1%
MIC, % (T. rubrum ATCC 28188 [7]; [16]): 0.2%
fungicidal activity (T. rubrum ATCC 28188 [7]; [17]): did not demonstrate fungicidal activity
Rat Oral LD50 [8]: >5,000 mg/Kg
infection after intravenous inoculation of treated viral material (Hepatitis B virus): did not show signs of infection
Rabbit Dermal LD50 [9]: 12,800 mg/Kg
Rat Inhalation LC50 [10]: 72.6 µg/mL
LD50 (Acute oral toxicity, rat; rat, in vivo, po): > 5000 mg/kg
LD50 ([11]; rabbit, in vivo, topical or ocular): 25600 mg/kg
LC50 ([12]; rat, in vivo, inhaled): 145 µg/mL (≈ 2410 µM)

[O-2].[Zn+2] [Zn oxide (100%), Zn oxide]
Rat Oral LD50 (*Mouse data) [13]: 7,950 mg/Kg
Rabbit Dermal LD50 [9]: >2,000 mg/Kg
Rat Inhalation LC50 [10]: >0.005 µg/mL
Rat Oral LD50 (Acute oral toxicity, rat; [18]): >>100,000 mg/Kg
Rabbit Dermal LD50 [11, 18]: >>100,000 mg/Kg
Rat Inhalation LC50 [12, 18]: >4.2 µg/mL

Monoglycinatecopper chloride complex
Death time of test-microorganisms (min) E. coli (E. coli (strain 1257); Conc. 0.1 %): >30 min
Death time of test-microorganisms (min) E. coli (E. coli (strain 1257); Conc. 0.2 %): 30 min
Death time of test-microorganisms (min) E. coli (E. coli (strain 1257); Conc. 0.5 %): 15 min
Death time of test-microorganisms (min) S. aureus (S. aureus (strain 906); Conc. 0.1 %): >30 min
Death time of test-microorganisms (min) S. aureus (S. aureus (strain 906); Conc. 0.2 %): >30 min
Death time of test-microorganisms (min) S. aureus (S. aureus (strain 906); Conc. 0.5 %): >30 min
Death time of test-microorganisms (min) S. aureus (S. aureus (strain 906); Conc. 5.0 %): >30 min
Death time of test-microorganisms (min) B. cereus [14]: >360 min

From patent US20080057136A1, “Disinfecting Composition and Methods of Making and Using Same” (priority 2003, published 2008)
